Results as given in patent publication US6641707B2, “Biodegradation-resistant electrodepositable coating compositions and methods related thereto” (PPG Industries Ohio, Inc., priority 2001, dated 2003).

System: aerobic heterotrophs
Assay: Bacteria Resistance Testing: acids added to infected electrodeposition permeate, spread plate count on R2A agar
Format: cell-based
Conditions: reactors rolled at 32° C.; for Bacteria Count 3 day: plated at 3 days; for Bacteria Count 7 day: plated at 7 days; for Bacteria Count 10 day: plated at 10 days
Method: Infected rinsewater from an online electrodeposition bath tank (containing E6100, commercially available from PPG Industries, Inc.) having a bacterial count of 1.5×10^6 cfu/mL was used to inoculate filter-sterilized ultrafiltrate (“permeate”) collected from the same line. The infected rinsewater was diluted by a factor of 10^3 into the sterile permeate. The infected permeate was added to reactors. The various acids listed below in the following Table 2 were prepared as 1% solutions in water and tested at 1000, 500, and 200 ppm of active material. Reactors were rolled for 10 days at 32° C. and were plated for bacteria counts at 3, 7, and 10 days.
The enumeration of aerobic heterotrophs in the reactors utilized the standard spread plate method as described in Standard Methods for the Examination of Water and Wastewater, 1992, section 9215C. Bacterial counts were examined using R2A agar plates. 100 μL of a suitable dilution of sample was pipetted onto the surface of the media and spread with an alcohol and flame sterilized glass rod. The plates were inverted and incubated for 3 days at 32° C. with periodic examination. Colony forming units were counted on a New Brunswick Bactronic Colony Counter. A target of 30 to 300 cfu per plate was considered a valid count.

[1] = acid at 200 ppm of active material
[2] = acid at 500 ppm of active material
[3] = acid at 1000 ppm of active material

Row | SMILES | Bacteria Count 3 day [1] | Bacteria Count 7 day [1] | Bacteria Count 10 day [1] | Bacteria Count 3 day [2] | Bacteria Count 7 day [2] | Bacteria Count 10 day [2] | Bacteria Count 3 day [3] | Bacteria Count 7 day [3] | Bacteria Count 10 day [3]
1 | COCCOCCOCC(=O)O [2-[2-(2-methoxyethoxy)-ethox]acetic, 2-[2-(methoxyethoxy)ethoxy]acetic acid] | 3.2 × 10^6 | 4.0 × 10^7 | 5.2 × 10^7 | <4.0 × 10^1 | >1.2 × 10^4 | 6.4 × 10^6 | <4.0 × 10^1 | <4.0 × 10^1 | <4.0 × 10^1
2 | COCCOCC(=O)O [2-(2-methoxyethoxy)acetic, 2-(2-methoxyethoxy)acetic acid] | 8.0 × 10^6 | 2.8 × 10^7 | 2.3 × 10^7 | <4.0 × 10^1 | >1.2 × 10^4 | 4.0 × 10^6 | <4.0 × 10^1 | <4.0 × 10^1 | <4.0 × 10^1
3 | CC(O)C(=O)O (stereo not drawn) [Lactic, lactic acid, reference compound] |  |  |  | 7.2 × 10^7 | 7.8 × 10^7 | 2.4 × 10^7 | 2.4 × 10^7 | 5.0 × 10^7 | 2.3 × 10^7
4 | CCCCOCC(=O)O [Butoxyacetic, butoxyacetic acid] | 3.0 × 10^6 | 1.2 × 10^7 | 5.6 × 10^7 | <4.0 × 10^1 | <4.0 × 10^1 | <4.0 × 10^1 | <4.0 × 10^1 | <4.0 × 10^1 | <4.0 × 10^1
5 | CCOCC(=O)O [Ethoxyacetic, ethoxyacetic acid] | 1.3 × 10^6 | 3.2 × 10^7 | 4.8 × 10^7 | <4.0 × 10^1 | <4.0 × 10^1 | <4.0 × 10^1 | <4.0 × 10^1 | <4.0 × 10^1 | <4.0 × 10^1
6 | COCC(=O)O [Methoxyacetic, methoxyacetic acid] | <4.0 × 10^1 | <4.0 × 10^2 | <4.0 × 10^1 | <4.0 × 10^1 | <4.0 × 10^1 | <4.0 × 10^1 | <4.0 × 10^1 | <4.0 × 10^1 | <4.0 × 10^1
7 | O=C(O)COc1ccccc1 [Phenoxyacetic, phenoxyacetic acid] | 4.0 × 10^6 | 8.0 × 10^6 | 3.2 × 10^7 | <4.0 × 10^1 | <4.0 × 10^1 | <4.0 × 10^1 | <4.0 × 10^1 | <4.0 × 10^1 | <4.0 × 10^1
